Laboratory results published in ChEMBL document CHEMBL1128530, “Alpha- and beta-adrenoceptors: from the gene to the clinic. 1. Molecular biology and adrenoceptor subclassification” (J Med Chem, 1995).

Tests used:
[1] = target: T1, Alpha-2B adrenergic receptor (Homo sapiens, UniProt P18089); test: Binding affinity against Alpha-2B adrenergic receptor from human clones.
T1 sequence (P18089 whole entry): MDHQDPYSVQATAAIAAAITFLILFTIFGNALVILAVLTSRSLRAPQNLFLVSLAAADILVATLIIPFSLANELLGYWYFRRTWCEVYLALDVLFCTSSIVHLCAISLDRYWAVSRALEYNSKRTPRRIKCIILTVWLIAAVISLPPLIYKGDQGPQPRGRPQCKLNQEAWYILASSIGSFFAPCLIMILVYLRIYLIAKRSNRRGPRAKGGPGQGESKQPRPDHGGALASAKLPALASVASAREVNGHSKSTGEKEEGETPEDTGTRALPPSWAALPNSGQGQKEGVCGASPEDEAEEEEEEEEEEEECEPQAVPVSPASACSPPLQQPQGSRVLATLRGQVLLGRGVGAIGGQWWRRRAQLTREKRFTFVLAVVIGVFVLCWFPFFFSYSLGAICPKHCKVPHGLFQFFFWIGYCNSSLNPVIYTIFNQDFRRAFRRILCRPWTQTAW

[2] = target: T2, Alpha-2C adrenergic receptor (Homo sapiens, UniProt P18825); test: Binding affinity against Alpha-2C adrenergic receptor from human clones.
T2 sequence (P18825 whole entry): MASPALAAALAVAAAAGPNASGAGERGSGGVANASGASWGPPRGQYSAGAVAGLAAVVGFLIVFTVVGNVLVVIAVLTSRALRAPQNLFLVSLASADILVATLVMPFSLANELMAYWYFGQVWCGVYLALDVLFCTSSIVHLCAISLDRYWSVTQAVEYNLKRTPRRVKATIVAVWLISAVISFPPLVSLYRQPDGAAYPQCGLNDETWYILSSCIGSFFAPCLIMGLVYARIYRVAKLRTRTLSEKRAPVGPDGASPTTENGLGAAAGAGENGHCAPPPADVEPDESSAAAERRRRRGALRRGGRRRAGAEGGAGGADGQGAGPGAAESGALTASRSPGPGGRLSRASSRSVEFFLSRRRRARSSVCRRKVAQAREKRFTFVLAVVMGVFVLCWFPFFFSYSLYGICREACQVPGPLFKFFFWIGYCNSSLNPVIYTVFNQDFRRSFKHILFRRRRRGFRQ

[3] = target: T3, Alpha-2A adrenergic receptor (Homo sapiens, UniProt P08913); test: Binding affinity against Alpha-2A adrenergic receptor, from human clones.
T3 sequence (P08913 whole entry): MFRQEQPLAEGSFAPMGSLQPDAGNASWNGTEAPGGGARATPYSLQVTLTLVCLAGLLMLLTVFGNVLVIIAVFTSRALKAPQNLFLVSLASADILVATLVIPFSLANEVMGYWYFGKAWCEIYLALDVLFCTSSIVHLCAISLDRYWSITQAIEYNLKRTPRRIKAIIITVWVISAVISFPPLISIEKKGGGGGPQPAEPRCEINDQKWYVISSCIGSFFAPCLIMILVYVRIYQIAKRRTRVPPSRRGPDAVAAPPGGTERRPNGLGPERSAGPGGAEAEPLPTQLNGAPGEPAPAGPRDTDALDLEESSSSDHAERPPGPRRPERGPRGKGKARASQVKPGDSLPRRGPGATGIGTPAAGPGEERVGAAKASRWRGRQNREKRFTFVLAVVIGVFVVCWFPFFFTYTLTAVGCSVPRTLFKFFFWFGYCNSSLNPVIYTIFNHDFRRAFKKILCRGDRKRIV

[4] = target: T4, Alpha-2A adrenergic receptor (Rattus norvegicus, UniProt P22909); test: The compound was tested for binding affinity against alpha-2D adrenergic receptor, from rat clones.
T4 sequence (P22909 whole entry): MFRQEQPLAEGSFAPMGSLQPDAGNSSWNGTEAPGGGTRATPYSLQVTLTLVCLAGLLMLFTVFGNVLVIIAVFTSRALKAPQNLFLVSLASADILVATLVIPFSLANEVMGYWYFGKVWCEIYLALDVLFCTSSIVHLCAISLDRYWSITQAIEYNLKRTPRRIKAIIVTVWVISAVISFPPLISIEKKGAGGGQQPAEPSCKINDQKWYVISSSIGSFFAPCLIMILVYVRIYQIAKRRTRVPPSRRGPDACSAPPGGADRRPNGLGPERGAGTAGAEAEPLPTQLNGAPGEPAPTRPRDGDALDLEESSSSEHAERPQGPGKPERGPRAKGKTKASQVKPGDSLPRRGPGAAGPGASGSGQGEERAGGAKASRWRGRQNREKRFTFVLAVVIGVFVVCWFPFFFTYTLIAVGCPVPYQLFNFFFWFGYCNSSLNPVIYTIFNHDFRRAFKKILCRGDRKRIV

[5] = target: T5, Alpha-1D adrenergic receptor (Rattus norvegicus, UniProt P23944); test: Binding affinity against Alpha-1D adrenergic receptor, from rat clones.
T5 sequence (P23944 whole entry): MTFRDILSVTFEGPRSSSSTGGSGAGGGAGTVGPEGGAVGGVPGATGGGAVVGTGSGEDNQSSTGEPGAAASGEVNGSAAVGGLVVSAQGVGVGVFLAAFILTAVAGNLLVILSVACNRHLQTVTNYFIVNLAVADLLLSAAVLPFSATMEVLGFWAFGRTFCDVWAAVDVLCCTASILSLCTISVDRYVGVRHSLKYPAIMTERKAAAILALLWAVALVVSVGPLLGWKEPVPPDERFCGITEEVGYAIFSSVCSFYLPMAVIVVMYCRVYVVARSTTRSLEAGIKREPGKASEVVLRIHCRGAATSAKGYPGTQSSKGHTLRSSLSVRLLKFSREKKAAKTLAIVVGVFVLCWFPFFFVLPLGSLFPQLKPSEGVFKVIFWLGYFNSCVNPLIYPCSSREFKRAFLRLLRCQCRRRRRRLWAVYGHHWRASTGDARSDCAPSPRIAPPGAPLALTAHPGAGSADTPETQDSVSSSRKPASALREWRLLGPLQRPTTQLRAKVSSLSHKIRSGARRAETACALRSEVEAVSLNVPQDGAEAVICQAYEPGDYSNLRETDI

[6] = target: T6, Alpha-1A adrenergic receptor (Bos taurus, UniProt P18130); test: Binding affinity against Alpha-1A adrenergic receptor from bovine clone
T6 sequence (P18130 whole entry): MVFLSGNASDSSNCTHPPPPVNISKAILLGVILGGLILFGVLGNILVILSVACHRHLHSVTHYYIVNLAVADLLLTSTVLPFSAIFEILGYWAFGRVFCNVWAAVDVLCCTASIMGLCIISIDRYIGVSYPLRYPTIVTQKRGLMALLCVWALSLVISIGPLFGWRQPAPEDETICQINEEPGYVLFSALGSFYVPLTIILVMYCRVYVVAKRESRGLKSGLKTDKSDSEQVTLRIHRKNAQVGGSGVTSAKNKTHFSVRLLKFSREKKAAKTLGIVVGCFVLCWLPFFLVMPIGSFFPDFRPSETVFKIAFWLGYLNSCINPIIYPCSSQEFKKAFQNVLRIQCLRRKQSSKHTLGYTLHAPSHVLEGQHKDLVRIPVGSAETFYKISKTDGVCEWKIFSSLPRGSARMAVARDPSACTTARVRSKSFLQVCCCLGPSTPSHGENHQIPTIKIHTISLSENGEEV

[7] = target: T7, Alpha-1D adrenergic receptor (Homo sapiens, UniProt P25100); test: Binding affinity against Alpha-1D adrenergic receptor, from human clones.
T7 sequence (P25100 whole entry): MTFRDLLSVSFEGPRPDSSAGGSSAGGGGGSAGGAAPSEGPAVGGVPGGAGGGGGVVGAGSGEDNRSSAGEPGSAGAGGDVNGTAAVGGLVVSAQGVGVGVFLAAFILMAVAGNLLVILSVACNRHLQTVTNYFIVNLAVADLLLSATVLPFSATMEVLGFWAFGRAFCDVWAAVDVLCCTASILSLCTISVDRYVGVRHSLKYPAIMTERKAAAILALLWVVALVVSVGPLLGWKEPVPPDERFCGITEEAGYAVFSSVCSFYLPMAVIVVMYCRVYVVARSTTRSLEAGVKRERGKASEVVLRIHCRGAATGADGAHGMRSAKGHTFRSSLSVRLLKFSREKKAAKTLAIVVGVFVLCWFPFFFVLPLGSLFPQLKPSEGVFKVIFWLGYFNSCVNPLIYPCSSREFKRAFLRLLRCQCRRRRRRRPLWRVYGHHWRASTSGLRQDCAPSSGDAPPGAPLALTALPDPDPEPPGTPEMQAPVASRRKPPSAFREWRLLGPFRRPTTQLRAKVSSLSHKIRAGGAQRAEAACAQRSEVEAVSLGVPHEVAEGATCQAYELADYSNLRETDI

[8] = target: T8, Alpha-1B adrenergic receptor (Homo sapiens, UniProt P35368); test: Binding affinity against Alpha-1B adrenergic receptor from human clone
T8 sequence (P35368 whole entry): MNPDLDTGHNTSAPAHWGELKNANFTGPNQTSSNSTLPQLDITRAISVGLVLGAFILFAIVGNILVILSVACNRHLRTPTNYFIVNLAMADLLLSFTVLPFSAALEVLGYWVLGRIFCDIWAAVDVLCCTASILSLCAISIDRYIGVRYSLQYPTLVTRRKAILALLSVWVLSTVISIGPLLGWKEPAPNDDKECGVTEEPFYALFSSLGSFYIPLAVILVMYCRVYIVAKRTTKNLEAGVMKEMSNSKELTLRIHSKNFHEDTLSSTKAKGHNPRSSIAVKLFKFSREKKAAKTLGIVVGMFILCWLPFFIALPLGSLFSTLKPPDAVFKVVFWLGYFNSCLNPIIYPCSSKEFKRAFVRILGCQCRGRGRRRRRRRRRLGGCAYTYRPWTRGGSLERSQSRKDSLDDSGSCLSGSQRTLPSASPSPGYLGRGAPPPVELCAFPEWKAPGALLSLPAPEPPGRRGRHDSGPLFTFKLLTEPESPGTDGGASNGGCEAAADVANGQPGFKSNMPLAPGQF

[9] = target: T9, Alpha-2A adrenergic receptor (Sus scrofa, UniProt P18871)
T9 sequence (P18871 whole entry): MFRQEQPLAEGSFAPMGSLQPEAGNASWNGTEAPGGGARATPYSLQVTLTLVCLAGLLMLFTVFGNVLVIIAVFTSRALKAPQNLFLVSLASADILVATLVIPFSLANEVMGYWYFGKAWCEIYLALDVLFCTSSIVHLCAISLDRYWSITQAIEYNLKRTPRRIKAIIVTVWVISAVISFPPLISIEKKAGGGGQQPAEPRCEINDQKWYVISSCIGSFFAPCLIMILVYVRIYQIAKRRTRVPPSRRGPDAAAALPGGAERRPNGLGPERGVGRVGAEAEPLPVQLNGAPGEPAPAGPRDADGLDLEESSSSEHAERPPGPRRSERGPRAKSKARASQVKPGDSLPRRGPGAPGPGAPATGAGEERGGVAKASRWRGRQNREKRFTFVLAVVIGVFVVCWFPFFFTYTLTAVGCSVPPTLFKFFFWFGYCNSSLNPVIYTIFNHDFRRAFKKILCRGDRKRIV

[10] = target: T10, Alpha-2A adrenergic receptor (Bos taurus, UniProt Q28838); test: Compound was evaluated for inhibition of binding of [3H]MK-91 to Alpha-2 adrenergic receptor in bovine pineal
T10 sequence (Q28838 whole entry): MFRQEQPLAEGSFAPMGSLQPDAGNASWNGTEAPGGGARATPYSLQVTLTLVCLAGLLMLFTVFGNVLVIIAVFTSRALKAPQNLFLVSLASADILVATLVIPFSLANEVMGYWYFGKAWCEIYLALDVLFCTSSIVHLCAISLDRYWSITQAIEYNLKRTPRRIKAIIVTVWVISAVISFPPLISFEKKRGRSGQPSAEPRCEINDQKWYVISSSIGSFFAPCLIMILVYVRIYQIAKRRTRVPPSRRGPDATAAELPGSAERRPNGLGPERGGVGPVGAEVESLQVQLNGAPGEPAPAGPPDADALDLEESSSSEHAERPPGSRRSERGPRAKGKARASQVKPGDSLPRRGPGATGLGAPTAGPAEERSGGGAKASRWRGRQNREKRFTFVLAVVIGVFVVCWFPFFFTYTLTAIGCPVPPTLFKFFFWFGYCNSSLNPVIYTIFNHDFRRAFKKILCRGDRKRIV

SMILES	Ki [3] [nM]	Ki [5] [nM]	Ki [6] [nM]	Ki [7] [nM]	further results
CC(C)=CCOc1ccc(Cl)c2c1CCN(C)CC2	114				Ki [1]: 142 nM; Ki [2]: 64 nM; Ki [4]: 313 nM
COc1cc2c(cc1OC)CN(c1cc(N)c3cc(OC)c(OC)cc3n1)CC2 [ABANOQUIL]		0.03	0.03		
COc1cc2nc(N(C)CCCNC(=O)C3CCCO3)nc(N)c2cc1OC (stereo unspecified) [ALFUZOSIN]		3.5		3.6	Ki [8]: 2.8 nM
COc1cc2nc(N3CCN(C(=O)c4ccco4)CC3)nc(N)c2cc1OC [PRAZOSIN]					Ki [9]: 4100 nM; Ki [10]: 106 nM
COC(=O)[C@H]1[C@H]2C[C@H]3c4[nH]c5ccccc5c4CCN3C[C@H]2CC[C@@H]1O [RAUWOLSCINE]		35			
COc1cc2nc(N3CCN(C(=O)C4CCCO4)CC3)nc(N)c2cc1OC (stereo unspecified) [TERAZOSIN]	3700	35	26	3.5	
